Tests used:
Assay in all cases: biochemical
Assay type in all cases: biochemical
[1] = biological target: T1, 382 unique human kinases (Homo sapiens, UniProt Q99986); conditions: VRK1, 10 uM; for remaining activity at 10 µM: read-out: % Enzyme Activity (relative to DMSO controls)
T1 construct: purchased Reaction Biology (HotSpot contract assay)
T1 sequence (Q99986 1-396): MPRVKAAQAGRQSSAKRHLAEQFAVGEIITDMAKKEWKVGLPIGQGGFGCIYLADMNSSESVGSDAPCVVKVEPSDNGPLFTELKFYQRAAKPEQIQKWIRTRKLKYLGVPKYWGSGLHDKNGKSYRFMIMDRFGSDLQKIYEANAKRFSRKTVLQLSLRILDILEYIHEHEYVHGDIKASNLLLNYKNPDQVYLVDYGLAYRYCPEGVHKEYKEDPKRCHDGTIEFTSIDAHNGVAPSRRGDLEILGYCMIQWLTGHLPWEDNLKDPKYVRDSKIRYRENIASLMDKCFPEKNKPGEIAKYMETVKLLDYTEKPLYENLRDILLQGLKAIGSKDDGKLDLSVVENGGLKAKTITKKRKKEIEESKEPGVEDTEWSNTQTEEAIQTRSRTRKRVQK

[2] = biological target: T2, 382 unique human kinases (Homo sapiens, UniProt Q12866, A708S); conditions: c-MER (A708S), 10 uM; for remaining activity at 10 µM: read-out: % Enzyme Activity (relative to DMSO controls)
T2 construct: purchased Reaction Biology (HotSpot contract assay)
T2 sequence (Q12866 21-999 A708S): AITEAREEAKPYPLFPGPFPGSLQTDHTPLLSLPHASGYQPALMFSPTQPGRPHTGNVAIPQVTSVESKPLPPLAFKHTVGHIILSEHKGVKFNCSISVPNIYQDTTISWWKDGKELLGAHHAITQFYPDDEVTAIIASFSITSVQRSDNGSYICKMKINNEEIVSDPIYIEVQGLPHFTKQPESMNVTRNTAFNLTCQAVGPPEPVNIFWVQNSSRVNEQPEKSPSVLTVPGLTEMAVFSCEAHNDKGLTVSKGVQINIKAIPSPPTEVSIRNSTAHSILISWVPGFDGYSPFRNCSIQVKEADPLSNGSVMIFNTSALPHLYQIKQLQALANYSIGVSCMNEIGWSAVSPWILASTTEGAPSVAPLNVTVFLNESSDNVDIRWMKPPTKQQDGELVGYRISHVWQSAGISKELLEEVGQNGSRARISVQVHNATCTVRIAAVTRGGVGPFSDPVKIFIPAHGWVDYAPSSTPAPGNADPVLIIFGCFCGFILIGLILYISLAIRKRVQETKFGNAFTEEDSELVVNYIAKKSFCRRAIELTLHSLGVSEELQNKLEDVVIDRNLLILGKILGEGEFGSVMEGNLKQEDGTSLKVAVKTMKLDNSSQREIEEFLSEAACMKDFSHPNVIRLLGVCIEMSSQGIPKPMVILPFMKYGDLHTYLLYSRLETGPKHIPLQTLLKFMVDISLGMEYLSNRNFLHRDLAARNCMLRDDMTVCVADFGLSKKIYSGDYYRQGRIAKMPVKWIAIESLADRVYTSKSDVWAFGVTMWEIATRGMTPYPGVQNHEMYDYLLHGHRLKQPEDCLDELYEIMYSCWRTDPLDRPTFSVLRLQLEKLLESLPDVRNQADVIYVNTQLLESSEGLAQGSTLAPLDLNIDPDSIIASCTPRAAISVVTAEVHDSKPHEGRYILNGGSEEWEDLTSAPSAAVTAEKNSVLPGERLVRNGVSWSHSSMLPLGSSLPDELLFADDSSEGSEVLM

[3] = biological target: T3, 382 unique human kinases (Homo sapiens, UniProt P00519, Y253F); conditions: ABL1 (Y253F), [ATP] 15 µM, compound 10 uM; for remaining activity at 10 µM: read-out: % Enzyme Activity (relative to DMSO controls)
T3 construct: purchased Reaction Biology (HotSpot contract assay)

[4] = biological target: T4, 382 unique human kinases (Homo sapiens, UniProt P23458); conditions: JAK1, 10 uM; for remaining activity at 10 µM: read-out: % Enzyme Activity (relative to DMSO controls)
T4 construct: purchased Reaction Biology (HotSpot contract assay)

[5] = biological target: T5, 382 unique human kinases (Homo sapiens, UniProt P54756); conditions: EPHA5, [ATP] 30 µM, compound 10 uM; for remaining activity at 10 µM: read-out: % Enzyme Activity (relative to DMSO controls)
T5 construct: purchased Reaction Biology (HotSpot contract assay)

[6] = biological target: T6, 382 unique human kinases (Homo sapiens, UniProt P51956); conditions: NEK3, 10 uM; for remaining activity at 10 µM: read-out: % Enzyme Activity (relative to DMSO controls)
T6 construct: purchased Reaction Biology (HotSpot contract assay)
T6 sequence (P51956 1-506): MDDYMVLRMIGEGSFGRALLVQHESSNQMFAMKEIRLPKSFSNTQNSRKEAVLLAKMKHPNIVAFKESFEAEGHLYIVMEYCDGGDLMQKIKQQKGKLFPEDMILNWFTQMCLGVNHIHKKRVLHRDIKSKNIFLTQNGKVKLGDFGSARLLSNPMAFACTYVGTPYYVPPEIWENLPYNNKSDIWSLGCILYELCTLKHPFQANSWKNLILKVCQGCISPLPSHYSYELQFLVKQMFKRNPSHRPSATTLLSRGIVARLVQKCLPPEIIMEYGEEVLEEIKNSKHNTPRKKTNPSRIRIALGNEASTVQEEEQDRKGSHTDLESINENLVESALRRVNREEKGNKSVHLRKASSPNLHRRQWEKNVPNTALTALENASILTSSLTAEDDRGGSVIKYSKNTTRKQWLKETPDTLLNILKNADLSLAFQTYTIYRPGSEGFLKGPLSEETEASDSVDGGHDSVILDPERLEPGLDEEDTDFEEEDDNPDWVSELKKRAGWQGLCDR

T4 sequence (P23458 whole entry): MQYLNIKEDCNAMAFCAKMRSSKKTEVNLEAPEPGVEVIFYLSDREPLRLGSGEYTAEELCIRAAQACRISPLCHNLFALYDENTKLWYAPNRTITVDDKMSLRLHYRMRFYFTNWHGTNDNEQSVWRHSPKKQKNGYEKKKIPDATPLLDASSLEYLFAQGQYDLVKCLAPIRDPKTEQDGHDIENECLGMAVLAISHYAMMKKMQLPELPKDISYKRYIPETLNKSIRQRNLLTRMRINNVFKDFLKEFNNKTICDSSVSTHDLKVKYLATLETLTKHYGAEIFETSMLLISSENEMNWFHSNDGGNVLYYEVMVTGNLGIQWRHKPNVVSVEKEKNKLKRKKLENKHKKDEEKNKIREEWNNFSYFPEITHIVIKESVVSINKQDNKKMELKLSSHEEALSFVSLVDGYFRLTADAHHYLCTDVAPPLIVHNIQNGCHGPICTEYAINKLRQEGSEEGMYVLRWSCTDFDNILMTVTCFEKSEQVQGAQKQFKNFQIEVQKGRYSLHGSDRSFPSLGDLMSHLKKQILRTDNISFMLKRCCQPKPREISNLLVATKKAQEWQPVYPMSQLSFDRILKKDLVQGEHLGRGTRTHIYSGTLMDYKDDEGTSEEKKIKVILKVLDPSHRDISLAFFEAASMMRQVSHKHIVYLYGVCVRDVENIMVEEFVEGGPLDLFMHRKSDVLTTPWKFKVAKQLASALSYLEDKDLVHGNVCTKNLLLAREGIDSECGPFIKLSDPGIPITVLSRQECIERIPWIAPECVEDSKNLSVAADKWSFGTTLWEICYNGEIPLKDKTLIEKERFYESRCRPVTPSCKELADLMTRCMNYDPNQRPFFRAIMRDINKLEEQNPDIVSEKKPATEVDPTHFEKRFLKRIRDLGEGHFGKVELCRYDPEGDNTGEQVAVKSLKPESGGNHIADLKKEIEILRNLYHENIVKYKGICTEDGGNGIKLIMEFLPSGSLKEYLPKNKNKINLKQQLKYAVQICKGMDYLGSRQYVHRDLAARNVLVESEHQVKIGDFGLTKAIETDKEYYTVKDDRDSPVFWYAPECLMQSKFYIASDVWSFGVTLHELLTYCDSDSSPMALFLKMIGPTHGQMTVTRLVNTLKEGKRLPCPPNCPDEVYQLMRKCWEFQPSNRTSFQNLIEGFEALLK
T5 sequence (P54756 25-1037): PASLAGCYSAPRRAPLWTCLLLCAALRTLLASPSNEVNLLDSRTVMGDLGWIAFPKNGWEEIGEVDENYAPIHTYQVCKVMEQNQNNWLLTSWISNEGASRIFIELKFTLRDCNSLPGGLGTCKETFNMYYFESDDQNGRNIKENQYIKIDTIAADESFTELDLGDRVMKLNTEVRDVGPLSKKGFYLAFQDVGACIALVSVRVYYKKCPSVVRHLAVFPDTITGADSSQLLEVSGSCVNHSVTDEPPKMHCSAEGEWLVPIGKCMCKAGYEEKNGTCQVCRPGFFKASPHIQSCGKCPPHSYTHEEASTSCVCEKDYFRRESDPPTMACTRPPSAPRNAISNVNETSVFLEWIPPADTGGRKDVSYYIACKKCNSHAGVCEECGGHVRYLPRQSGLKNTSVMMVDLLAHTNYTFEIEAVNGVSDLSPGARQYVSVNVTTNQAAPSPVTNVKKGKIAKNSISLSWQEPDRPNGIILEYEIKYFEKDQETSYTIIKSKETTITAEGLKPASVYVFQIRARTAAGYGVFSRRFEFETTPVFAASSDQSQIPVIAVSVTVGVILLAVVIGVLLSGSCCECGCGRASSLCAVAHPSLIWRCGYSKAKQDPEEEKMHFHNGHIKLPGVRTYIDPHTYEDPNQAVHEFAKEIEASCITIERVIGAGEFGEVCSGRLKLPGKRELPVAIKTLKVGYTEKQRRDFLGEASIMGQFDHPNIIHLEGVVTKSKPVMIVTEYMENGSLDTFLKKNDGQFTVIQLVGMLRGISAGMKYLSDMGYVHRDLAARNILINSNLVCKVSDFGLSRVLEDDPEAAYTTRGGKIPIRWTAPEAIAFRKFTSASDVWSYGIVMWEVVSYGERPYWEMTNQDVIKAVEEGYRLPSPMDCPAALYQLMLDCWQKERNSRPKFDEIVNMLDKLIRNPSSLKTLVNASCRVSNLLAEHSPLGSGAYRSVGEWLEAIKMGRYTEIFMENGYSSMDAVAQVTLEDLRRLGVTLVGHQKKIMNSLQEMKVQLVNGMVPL

| Compound | remaining activity at 10 µM [1] | remaining activity at 10 µM [2] | remaining activity at 10 µM [3] | remaining activity at 10 µM [4] | remaining activity at 10 µM [5] | remaining activity at 10 µM [6] | % Enzyme Activity (relative to DMSO controls) [1] | % Enzyme Activity (relative to DMSO controls) [2] | % Enzyme Activity (relative to DMSO controls) [3] | % Enzyme Activity (relative to DMSO controls) [4] | % Enzyme Activity (relative to DMSO controls) [5] | % Enzyme Activity (relative to DMSO controls) [6] |
| --- | --- | --- | --- | --- | --- | --- | --- | --- | --- | --- | --- | --- |
| CC(C)c1cc(-c2n[nH]c(=O)n2-c2ccc3c(ccn3C)c2)c(O)cc1O [Ganetespib (STA9090)] | 75.3% | 72.7% |  |  |  |  |  |  |  |  |  |  |
| CC(C)c1cc(-c2n[nH]c(=O)n2-c2ccc3c(ccn3C)c2)c(O)cc1O [Ganetespib] |  |  | 3.72% | 95% | 55.6% | 117% |  |  |  |  |  |  |
| CCNC(=O)c1noc(-c2cc(C(C)C)c(O)cc2O)c1-c1ccc(CN2CCOCC2)cc1 [Luminespib (AUY-922)] | 87% | 98.6% |  |  |  |  | 84.23% | 96.08% |  |  |  |  |
| CCNC(=O)c1noc(-c2cc(C(C)C)c(O)cc2O)c1-c1ccc(CN2CCOCC2)cc1 [Luminespib] |  |  | 5.44% | 96.1% | 79.4% | 91.5% |  |  | 4.48% | 94.10% | 78.40% | 90.60% |

— paper PMC8550792, “Evolution of kinase polypharmacology across HSP90 drug discovery” (Cell Chemical Biology, 2021)
